The results in this text go back to patent publication US20200061026A1, “METHODS AND COMPOSITIONS FOR PREVENTING VECTOR-BORNE DISEASE TRANSMISSION” (The Scripps Research Institute, priority 2016, published 2020).

One data set relates to Anopheles. Briefly: Anopheles membrane feeding assay, EC90 at day 7. It counts as in vivo. The conditions noted are these: 168 h. The source says: Isoxazoline compounds fluralaner or afoxolaner were reconstituted in 50% human serum and 50% red blood cells and administered to adult Anopheles stephensi mosquitos via standard membrane feeding. […] FIG. 2A represents a plot of viable Anopheles stephensi versus fluralaner concentration at each day of assessment. FIG. 2B represents a plot of viable Anopheles stephensi versus afoxolaner concentration at each day of assessment. […] The IC50 values of each compound for Anopheles death were determined by logistic regression using a least squares method to find the best fit and are shown in Table 1. IC50 values were calculated by applying a four-parameter logistic regression model using a least-squares method to find the best fit using the Graphpad Prism 5.0 software package.

The next data set has as its target T1, CYP 1A2 (Homo sapiens, UniProt P05177).
T1 construct: individual CYPs in a pool of human liver microsomes; from tissue; host or cells: pooled human liver microsomes
T1 sequence (P05177 1-516): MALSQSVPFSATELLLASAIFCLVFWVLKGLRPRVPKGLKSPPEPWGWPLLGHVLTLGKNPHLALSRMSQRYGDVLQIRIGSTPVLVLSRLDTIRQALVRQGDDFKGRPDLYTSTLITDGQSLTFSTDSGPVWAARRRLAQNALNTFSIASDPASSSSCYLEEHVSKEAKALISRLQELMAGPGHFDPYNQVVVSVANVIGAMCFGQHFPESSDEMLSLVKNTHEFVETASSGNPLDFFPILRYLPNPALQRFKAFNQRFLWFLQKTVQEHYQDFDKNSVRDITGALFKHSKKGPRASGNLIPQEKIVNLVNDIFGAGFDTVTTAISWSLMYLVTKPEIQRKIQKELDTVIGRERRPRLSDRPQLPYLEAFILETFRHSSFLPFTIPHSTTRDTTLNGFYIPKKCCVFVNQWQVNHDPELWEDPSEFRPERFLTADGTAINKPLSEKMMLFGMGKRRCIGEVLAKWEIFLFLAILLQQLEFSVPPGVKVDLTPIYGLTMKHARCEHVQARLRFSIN
The experiment in a line: Reversible CYP inhibition in human liver microsomes, CYP 1A2. The data set is classed as in vitro ADME. How it is done: (§1) Reversible inhibition of cytochrome P450s (CYPs) in human liver microsomes was tested using prototypical, isoform-selective activity assays for individual CYPs in a pool of human liver microsomes (i.e., testosterone for CYP 3A4, phenacetin for CYP 1A2, bufuralol for CYP 2D6, S-mephenytoin for CYP 2C19, and diclofenac for CYP 2C9). The assay provides 8-point IC50 determinations in the range of 0.010 to 50 μM drug concentrations for major isoforms of CYP450.
(In general: Liver microsomes are a subcellular fraction often used to study metabolism.)

The next data set has as its target T2, CYP 2D6 (Homo sapiens, UniProt P10635).
T2 construct: individual CYPs in a pool of human liver microsomes; from tissue; host or cells: pooled human liver microsomes
The experiment in a line: Reversible CYP inhibition in human liver microsomes, CYP 2D6. Particulars: bufuralol, read-out: Cyp microsome IC50, 2D6. It counts as in vitro ADME. How it is done:
as §1

The nature of data set [1]: Hepatocyte stability assay, cynomolgus monkey. The data set is classed as in vitro ADME. The conditions noted are these: hepatocytes. The method, then:
Example 7. In Vitro Metabolic Stability of Isoxazoline Compounds in cd-1 Mouse, sd Rat, Beagle Dog, Cynomolgus Monkey and Human Cryopreserved Hepatocytes
Isoxazoline compounds (at 1 μM) were incubated with cryopreserved hepatocytes (0.5×10^6 cells per mL) in duplicates (n=2) at 37° C. using 96-well plate format.
Time points were 0, 15, 30, 60 and 90 minutes in separate plates and medium control samples without cells at 0 and 90 minutes were also incubated. At each time point the reaction was stopped by adding organic solution containing internal standard (IS).
Positive controls 7-ethoxycoumarin and 7-hydroxycoumarin were included in parallel.
The samples were analyzed by LC-MS/MS. Disappearance of the test compound was assessed based on peak area ratios of analyte/IS (no standard curve).
Intrinsic clearance and t½ values were then calculated.

For another data set, the target named is hERG channels (Homo sapiens, UniProt Q12809). Briefly: hERG channel manual patch clamp assay (CHO-K1 cells). It counts as cell-based. How it is done:
Cells: Stable CHO-K1 cells expressing hERG channels (from AVIVA Biosciences) were used in the assay.
Patch Clamp recording: The recordings were performed on conventional patch clamp (Axon Multiclamp 700B, Digidata 1440, pCLAMP 10, Molecular Devices Corporation or HEKA EPC10/Patchmaster system, HEKA Elektronik Corporation) at room temperature, using the whole-cell patch clamp techniques. The composition of external solution was (mM): HEPES 10, NaCl 145, KCl 4, CaCl2 2, MgCl2 1, Glucose 10, pH to 7.4 with 1N NaOH, osmolarity to 290-300 mOsm. Filtered and kept at 4° C. The composition of internal solution was (mM): KOH 31.25, KCl 120, CaCl2 5.374, MgCl2 1.75, EGTA 10, HEPES 10, Na2-ATP 4, pH to 7.2 with 1N KOH, osmolarity to 280-290 mOsm. Filtered and kept at −20° C.
For conventional patch clamp, 35 mm culture dishes or recording chambers containing CHO-hERG cells were placed on the stage of an inverted/upright microscope and continuously perfused with external solutions from a perfusion system (RSC-160 Rapid solution Changer, BioLogic or OctaFlow I, ALA Scientific Instruments Inc).
Test compounds were dissolved in 100% DMSO to make stock solutions for each test concentration, and then diluted into external solutions to achieve final concentration for testing. Final DMSO concentration was not more than 0.3%.
Voltage command protocol: From the holding potential of −80 mV, the voltage was first stepped to 60 mV for 850 ms to open hERG channels. Then the voltage was stepped back down to −50 mV for 1275 ms, causing a “rebound” or tail current, which was measured and collected for data analysis. Finally, the voltage was stepped back to the holding potential (−80 mV). This voltage command protocol was repeated every 15000 msec. This command protocol was performed continuously during the test (vehicle control, test compounds).
Compound effect (% inhibition) was determined by difference in current amplitude before and after the application of test compounds. IC50 values were determined from concentration-response curves that were obtained with Hill fitting.

Data set [2] in a line: Lipophilicity, ALogD at pH 7.4. The data set is classed as physicochemical.
The nature of another data set: Solubility at pH 6.8. The data set is classed as physicochemical. Particulars: pH 6.8, aqueous buffer.
[3] abbreviates: cynomolgus monkey (cy), 1 μM, read-out: Hepatocyte stability (t½).

Read-outs that look alike come from different tables or passages of the source.

Sequence of hERG channels (Q12809 whole entry): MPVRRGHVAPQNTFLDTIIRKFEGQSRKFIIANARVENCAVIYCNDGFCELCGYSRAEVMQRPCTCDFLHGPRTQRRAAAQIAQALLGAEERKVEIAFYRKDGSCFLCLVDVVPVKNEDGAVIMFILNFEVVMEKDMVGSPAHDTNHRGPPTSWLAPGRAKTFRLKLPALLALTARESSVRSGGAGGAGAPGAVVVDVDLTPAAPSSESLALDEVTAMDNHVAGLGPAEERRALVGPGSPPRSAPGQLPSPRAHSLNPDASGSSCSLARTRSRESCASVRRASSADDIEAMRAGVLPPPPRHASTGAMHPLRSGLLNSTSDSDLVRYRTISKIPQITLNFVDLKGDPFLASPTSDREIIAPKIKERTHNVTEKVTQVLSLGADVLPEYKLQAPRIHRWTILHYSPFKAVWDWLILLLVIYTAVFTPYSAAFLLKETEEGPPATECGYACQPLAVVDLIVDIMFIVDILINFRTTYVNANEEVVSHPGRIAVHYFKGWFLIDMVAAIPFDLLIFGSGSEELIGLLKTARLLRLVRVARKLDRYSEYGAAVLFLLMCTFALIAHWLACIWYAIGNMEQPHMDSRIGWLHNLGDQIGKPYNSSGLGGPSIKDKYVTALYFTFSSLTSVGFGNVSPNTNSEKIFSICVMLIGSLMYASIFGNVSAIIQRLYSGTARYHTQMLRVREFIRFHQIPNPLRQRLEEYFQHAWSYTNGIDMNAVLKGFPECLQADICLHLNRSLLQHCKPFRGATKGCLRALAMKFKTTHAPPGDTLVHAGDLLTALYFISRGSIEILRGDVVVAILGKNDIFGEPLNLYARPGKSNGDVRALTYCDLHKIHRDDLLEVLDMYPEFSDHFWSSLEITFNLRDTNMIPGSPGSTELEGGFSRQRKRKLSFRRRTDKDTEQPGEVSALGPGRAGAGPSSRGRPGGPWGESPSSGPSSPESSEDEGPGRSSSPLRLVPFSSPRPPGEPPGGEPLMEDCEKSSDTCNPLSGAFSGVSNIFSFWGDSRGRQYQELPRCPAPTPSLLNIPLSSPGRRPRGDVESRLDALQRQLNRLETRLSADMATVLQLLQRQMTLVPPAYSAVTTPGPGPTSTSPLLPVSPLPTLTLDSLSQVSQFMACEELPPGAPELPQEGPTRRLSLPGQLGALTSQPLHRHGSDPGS
T2 sequence (P10635 whole entry): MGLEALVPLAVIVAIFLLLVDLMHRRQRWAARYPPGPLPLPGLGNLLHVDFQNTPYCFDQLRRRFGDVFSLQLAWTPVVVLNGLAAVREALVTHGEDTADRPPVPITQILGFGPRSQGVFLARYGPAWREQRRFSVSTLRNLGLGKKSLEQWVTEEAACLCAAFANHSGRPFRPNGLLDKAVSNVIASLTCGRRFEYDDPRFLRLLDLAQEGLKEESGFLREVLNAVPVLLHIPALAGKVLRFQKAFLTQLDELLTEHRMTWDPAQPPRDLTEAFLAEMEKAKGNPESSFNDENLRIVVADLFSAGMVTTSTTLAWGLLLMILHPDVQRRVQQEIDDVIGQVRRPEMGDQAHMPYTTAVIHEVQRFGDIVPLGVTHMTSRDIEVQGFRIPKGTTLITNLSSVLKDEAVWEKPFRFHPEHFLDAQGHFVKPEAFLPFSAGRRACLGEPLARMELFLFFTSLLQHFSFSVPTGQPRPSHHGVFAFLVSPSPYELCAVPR

`O=C(CNC(=O)c1ccc(C2=NO[C@](c3cc(Cl)cc(C(F)(F)F)c3)(C(F)(F)F)C2)c2ccccc12)NCC(F)(F)F` (racemic) [Afoxolaner, afoxolaner]: the EC90 (as a rule, the concentration at which the effect reaches the 90% level) in the data set on Anopheles is 0.0081 µM. Besides, the half-maximal inhibitory concentration (IC50) against CYP 1A2 and on CYP 2D6 was > 50 µM in each case. In addition, the half-life at 1 μM in data set [1] (setting [3]) is > 217 min. The “hERG inhibition (manual patch)” value at hERG channels (at 5 uM) was 0.9% ± 2.5%. The “ALogD (pH 7.4)” value in data set [2] was determined as 6.1. In addition, the solubility (as a rule, the dissolved amount per volume that the medium holds) in the data set “Solubility at pH 6.8” (read-out: Solubility (pH 6.8)) was < 1 µM.
With `O=C(CNC(=O)c1ccc(C2=NO[C@@](c3cc(Cl)cc(C(F)(F)F)c3)(C(F)(F)F)C2)c2ccccc12)NCC(F)(F)F` [(S)-afoxolaner], the EC90 in the data set on Anopheles amounted to 0.008 µM. Besides, the concentration for half-maximal inhibition (IC50) (usually the concentration needed to halve the response being measured) was > 50 µM at CYP 1A2, 19 µM on CYP 2D6 and > 30 µM at hERG channels. Further, in data set [1] (setting [3]), the half-life at 1 μM was determined as 50 min. In data set [2], the “ALogD (pH 7.4)” value was 6.1. For the same compound, in the data set “Solubility at pH 6.8” (read-out: Solubility (pH 6.8)), the solubility was < 1 µM.
As to `O=C(CNC(=O)c1ccc(C2=NO[C@@](c3cc(Cl)cc(Cl)c3)(C(F)(F)F)C2)c2ccccc12)NCC(F)(F)F` [(S)-4-(5-(3,5-dichlorophenyl)-5-(trifluoromethyl)-4,5-dihydroisoxazol-3-yl)-N-(2-oxo-2-((2,2,2-trifluoroethyl)amino)ethyl)-1-naphthamide], in the data set on Anopheles (day 7, read-out: EC90), the 90% effect concentration (EC90) was 0.008 µM. In addition, the IC50 on CYP 1A2 (human liver microsomes, phenacetin, read-out: Cyp microsome IC50, 1A2) was > 50 µM; at CYP 2D6 it was 17.2 µM; on hERG channels, 19.9 µM. In data set [1] (cynomolgus monkey), this compound displayed a half-life at 1 μM of 42 min. In data set [2], the “ALogD (pH 7.4)” value is 5.8. In addition, the solubility in “Solubility at pH 6.8” is < 1 µM.
